Read-outs that look alike come from different tables or passages of the source.
Columns and labels:
Sprague-Dawley rats = test: Assessment of wake promotion in Sprague-Dawley rats (EEG/EMG); format: in vivo; conditions: Rattus norvegicus; PO, 3 mpk, male Sprague-Dawley rats, dosed at ZT5, 6-hour post-dose period; read-out: Mean cortical activation time (% vehicle treatment)
Experimental: Wake promotion was assessed using electroencephalography (EEG) and electromyography (EMG) in adult male Sprague-Dawley rats (350-600 g). All rats (Charles River Laboratories, Raleigh, NC, USA) were intraperitoneally implanted with telemetry devices (F50-EEE, Data Sciences International Inc., M/N, USA) under isoflurane anesthesia. For EEG, stainless steel screws were implanted over frontal cortex and parietal cortex, and reference screws were placed over cerebellum. Additionally, an electrode was placed in neck muscle for EMG. Rats were given carprofen post-surgery and underwent a 7 to 10-day recovery period. Rats habituated to the experimental room for 7 days and were maintained on a 12-hour light-dark cycle.
EEG and EMG data were recorded using the DSI telemetry system and Ponemah software (Data Sciences International Inc., MN, USA). Sleep-wake stages were scored both manually and with Somnivore, a supervised machine learning software platform, in 10 second epocs. Records were visually inspected as needed post-processing.
All test compounds were dissolved in 5% DMSO and suspended in 95% saline with 0.5% methylcellulose and 0.5% tween. […] Unless otherwise indicated, all compounds were dosed orally. Recordings for each rat were initiated immediately after dosing and lasted for 6 hours post-dose.
Two key endpoints include wakefulness time and cortical activation time. Wakefulness time is derived from the sleep-wake stage analysis. Cortical activation time is based on the duration in which frontal gamma oscillatory activity (30-100 Hz), a key feature of wakefulness, was elevated relative to a pre-treatment baseline. Mean cortical activation time was computed relative to vehicle treatment for the 6-hour post-dose period.

MDR1 = test: MDCK-MDR1 permeability assay; format: in vitro ADME; conditions: dog; for Papp A→B at 2 h, 3 μM: MDCK-MDR1, MDCK-MDR1 cells, apical to basolateral, 3 μM test compound, 2 hours at 37 degrees C; for efflux ratio at 2 h, 3 μM: MDCK-MDR1, Papp (basolateral to apical) divided by Papp (apical to basolateral), MDCK-MDR1 cells, read-out: Efflux ratio (ER)
Experimental: (§1) The bidirectional permeability (Apical to Basal and Basal to Apical directions) of test compounds in MDCK-MIDR1 cells were evaluated using MDCK-MIDR1 cells seeded in Solvo PreadyPort™ MIDCK 96-well plate. Once the plate was received from ReadyCell (Barcelona, Spain), it was treated as per PreadyPort™ user's manual.
(§2) For the Apical to Basolateral (A→B) permeability, 80 μL of test compound (3 μM) co-dosed with LY (Lucifer Yellow) (100 μM) in HBSS (Hank's Balanced Salt Solution) assay buffer was added to the donor side (A) while 250 μL of HBSS buffer was added to the receiver side (B). For the Basolateral to Apical (B→A) permeability, 255 μL of test compound (3 μM) in HBSS assay buffer was added to the donor side (B) while 75 μL of HBSS buffer containing LY (100 μM) was added to the receiver side (A).
(§3) The plate was placed in an incubator set at 37 degrees C. After 10 minutes of pre-warming, 5 μL aliquot was taken from donor compartment and set aside as the dosing solution. The MDCK-MDR1 incubation plate was placed back into the incubator for 2 hours of incubation at 37 degrees C. After 2 hours of incubation, 25 μL and 5 μL aliquots were removed from the receiver and donor sides, respectively. To the 5 μL aliquots taken from the donor sides (before and after a 2-hour incubation) were diluted with 20 μL of the HBSS buffer. All samples were mixed with 150 μL with acetonitrile containing internal standard (IS) and 200 μL water, and analyzed by LC-MS/MS.
(§4) The apparent permeability (Papp) was calculated using the following formula: Papp=dQ/dt×1/A×C0 where: • dQ/dt: amount of translocated material over incubation time (nmol/s) • A: area of insert (0.14 cm^2 for PreadyPort™ MDR1-96) • C0: initial concentration of product applied in apical (A→B) or basal (B→A) compartment (nmol/mL)
(§5) The efflux ratio (ER) was measured by dividing the Papp (basolateral to apical direction) by Papp (apical to basolateral direction). It is a general measure of the involvement of active processes. An ER>2 is considered positive for active transport.
(§6) The data reported in Table 3 were obtained according to the MDCK-MIDR1 permeability assay described above.

human hepatocytes = test: Hepatocytes stability assay (human hepatocytes); format: in vitro ADME; conditions: for Extraction Ratio (ER): scaled hepatic clearance divided by liver blood flow, fu assumed unity
In short: (§7)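 Cryopreserved pooled (50 donors, mixed gender) human hepatocytes at 1×10^6 cells/mL in Krebs-Henseleit buffer with 1 μM compound (0.1% DMSO), 37 degrees C, sampled 0–240 min. Parent depletion by LC-MS/MS; first-order fit gave T1/2 and CLint, scaled to hepatic clearance via well-stirred model (fu assumed 1); extraction ratio = CL,hep/liver blood flow.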

[1] = Hepatocytes stability assay (human hepatocytes); format: in vitro ADME; conditions: both sexes, cryopreserved hepatocytes, 1 μM test compound, 1×10^6 cell/mL, 37 degrees C, read-out: CLint (μL/min/million cells)
In short: as §7

[2] = target: T1, human orexin-2 receptor (OX2R) (Homo sapiens, UniProt O43614); test: Human OX2R IP1 assay; format: cell-based; conditions: T-Rex CHO cells stably overexpressing human OX2R, IP1 accumulation, 1 hr at 37 degrees C; mean EC50; ∧ = racemic mixture
T1 construct: expressed in transfected cells
T1 sequence (O43614 1-444): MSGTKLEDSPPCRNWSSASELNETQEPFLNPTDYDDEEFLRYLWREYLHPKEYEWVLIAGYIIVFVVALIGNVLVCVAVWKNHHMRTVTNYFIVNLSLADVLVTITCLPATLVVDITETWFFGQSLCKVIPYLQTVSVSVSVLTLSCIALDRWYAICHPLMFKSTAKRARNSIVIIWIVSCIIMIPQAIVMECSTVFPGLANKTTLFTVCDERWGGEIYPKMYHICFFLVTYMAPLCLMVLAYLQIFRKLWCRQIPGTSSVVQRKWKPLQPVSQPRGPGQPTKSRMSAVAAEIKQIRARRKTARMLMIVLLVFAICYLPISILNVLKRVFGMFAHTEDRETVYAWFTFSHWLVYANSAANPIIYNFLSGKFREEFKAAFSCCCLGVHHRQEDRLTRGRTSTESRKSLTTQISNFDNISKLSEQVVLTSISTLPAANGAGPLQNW
Experimental: T-Rex CHO cells stably overexpressing the human orexin-2 receptor (OX2R) were induced overnight with 1 μg/mL of doxycycline in a T225 flask. 24 hours post induction, cells were lifted with accutase and plated into a 384-well proxy plate at 30,000 cells/well. Cells were then treated with different test compounds in 1× stimulation buffer containing 10 mM Hepes, 1 mM CaCl2), 0.5 mM MgCl2, 4.2 mM KCl, 146 mM NaCl, 5.5 mM glucose, and 50 mM LiCl, pH 7.4, for 1 hr at 37 degrees C. Following incubation, the reaction was terminated by the addition of detection mix, which is composed of IP1-d2 and anti-IP1-cryptate diluted in lysis buffer as well as 1× stimulation buffer. The plates were allowed to incubate for 1 hour at room temperature and were then read in the EnVision® multimode plate reader, measuring inositol phosphate levels.
Cisbio IP1 is a cell-based functional assay quantifying the accumulation of inositol monophosphate (IP), a metabolite released as a result of orexin 2 receptor activation through the phospholipase C-Gq signaling pathway. This is a competitive immunoassay in which the IP1 produced by the cells upon receptor activation competes with the IP1 analog coupled to the d2 fluorophore (acceptor) for binding to an anti-IP1 monoclonal antibody labeled with Eu cryptate (donor). The measured HTRF-FRET based signal is inversely proportional to the IP1 concentration produced.
The EC50 values reported in Table 2 were obtained according to the human OX2R IP1 assay described above. Data are the mean EC50 values ±S.E.M. The compound methyl (2R,3S)-3-((methylsulfonyl)amino)-2-(((cis-4-phenylcyclohexyl)oxy)methyl)-piperidine-1-carboxylate is a reference compound which is disclosed in Example 5 of PCT publication no. WO2017/135306.

MDCK-MDR1 cells = test: MDCK-MDR1 permeability assay; format: in vitro ADME; conditions: MDCK-MDR1 cells; for Papp A→B (10^−6 cm/s): apical to basolateral, 3 μM test compound, 2 hours at 37 degrees C
Experimental: as §1, §2, §3, §4, §5, §6

[3] = amide bond, HATU/DIEA
[4] = amide bond, 13-membered ring
[5] = from CC(C)(C)OC(=O)N[C@H]1CCCN[C@H]1COC1CCC(c2ccccc2CCC(=O)O)CC1; amide bond; 13-membered ring; HATU/DIEA; MeCN; 0.36 mM; 2.0 h

Row | Compound | response vs control in vivo at 3 mg/kg (Sprague-Dawley rats) | Papp A→B at 2 h, 3 μM (MDR1) | efflux ratio at 2 h, 3 μM (MDR1) | Extraction Ratio (ER) (human hepatocytes) | hepatocyte CLint at 1 μM [1] | other results
1 | CS(=O)(=O)N[C@H]1CCCN2C(=O)COc3ccccc3C3CCC(CC3)OCC12 (stereo partly shown) [Compound 2] | 190% | 0.89 ×10⁻⁶ cm/s | 39 | 0.67 | 13 µL/min/1e6 cells | –
2 | CS(=O)(=O)N[C@H]1CCN2C(=O)COc3ccccc3C3CCC(CC3)OCC12 (stereo partly shown) [Compound 7] | 165% | 14 ×10⁻⁶ cm/s | 2.2 | 0.78 | 24 µL/min/1e6 cells | –
3 | CS(=O)(=O)N[C@H]1CCCN2C(=O)COc3ccc(Cl)cc3C3CCC(CC3)OCC12 (stereo partly shown) [Compound 51] | 166% | 0.59 ×10⁻⁶ cm/s | 21 | 0.41 | 4.6 µL/min/1e6 cells | –
4 | CS(=O)(=O)N[C@H]1CCCN2C(=O)COc3nnccc3[C@H]3CC[C@H](CC3)OC[C@@H]12 [Compound 66] | – | – | – | <0.22 | – | EC50 [2]: < 100 nM; Papp A→B (10^−6 cm/s) (MDCK-MDR1 cells): <0.047 10^−6 cm/s; Efflux ratio (ER) (MDCK-MDR1 cells; Papp (basolateral to apical) divided by Papp (apical to basolateral), 3 μM): >9.5; CLint (μL/min/million cells) (human hepatocytes; 1 μM test compound, 1×10^6 cell/mL, 37 degrees C): <1.9 μL/min/million cells
5 | CS(=O)(=O)N[C@H]1CCCN2C(=O)COc3c(F)cc(F)cc3C3CCC(CC3)OCC12 (stereo partly shown) [Compound 12] | 236% | 2.3 ×10⁻⁶ cm/s | 6.2 | 0.66 | 13 µL/min/1e6 cells | –
6 | CS(=O)(=O)N[C@H]1CCCN2C(=O)COc3ncccc3C3CCC(CC3)OCC12 (stereo partly shown) [Compound 46] | 157% | 0.31 ×10⁻⁶ cm/s | 58 | 0.51 | 6.9 µL/min/1e6 cells | –
7 | CS(=O)(=O)N[C@H]1CCCN2C(=O)COc3nccnc3C3CCC(CC3)OCC12 (stereo partly shown) [Compound 55] | 145% | 0.092 ×10⁻⁶ cm/s | 77 | <0.22 | < 1.9 µL/min/1e6 cells | –
8 | tert-butyl ((2^1S,2^4S,5^2R,5^3S)-6-oxo-3,11-dioxa-5(2,1)-piperidina-1(1,2)-benzena-2(1,4)-cyclohexanacycloundecaphane-5^3-yl)carbamate | – | – | – | – | – | ring closure, yield after HPLC ([3]; 16-membered ring, DMF/MeCN 1:2, 16.3 mM, 25.0 °C): 88.1%
9 | CS(=O)(=O)N[C@H]1CCCN2C(=O)COc3nnccc3C3CCC(CC3)OCC12 (stereo partly shown) [Compound 56] | – | – | 5.2 | <0.22 | < 1.9 µL/min/1e6 cells | Papp A→B (10^−6 cm/s) (MDCK-MDR1 cells): 0.13 10^−6 cm/s
10 | CC(C)(C)OC(=O)N([C@H]1CCN2C(=O)COc3ccccc3C3CCC(CC3)OC[C@@H]12)S(C)(=O)=O | – | – | – | – | – | ring closure, isolated yield ([4]; from CC(C)(C)OC(=O)N([C@H]1CCN[C@H]1COC1CCC(c2ccccc2OCC(=O)O)CC1)S(C)(=O)=O, HATU/DIEA, MeCN, 2.4 mM, 2.0 h): 31%
11 | COc1ccc(CNC2CCN3C(=O)C(F)(F)Oc4c(F)cc(F)cc4C4CCC(CC4)OCC23)cc1 (stereo not shown) | – | – | – | – | – | ring closure, isolated yield ([4]; from COc1ccc(CNC2CCNC2COC2CCC(c3cc(F)cc(F)c3OC(F)(F)C(=O)O)CC2)cc1, HATU/diisopropylamine, DCM/MeCN 1:1, 18.5 mM, 3.0 h): 39.3%
12 | CC(C)(C)OC(=O)NC1CCCN2C(=O)COc3cnccc3C3CCC(CC3)OCC12 (stereo not shown) | – | – | – | – | – | ring closure, isolated yield ([4]; from CC(C)(C)OC(=O)NC1CCCNC1COC1CCC(c2ccncc2OCC(=O)O)CC1, HATU/DIEA, MeCN, 0.22 mM, 2.0 h): 23.4%
13 | CC(C)(C)OC(=O)N[C@H]1CCCN2C(=O)CCc3ccccc3C3CCC(CC3)OC[C@@H]12 | – | – | – | – | – | ring closure, conversion [5]: 40%; ring closure, yield after HPLC ([3]; from CC(C)(C)OC(=O)N[C@H]1CCCN[C@H]1COC1CCC(c2ccccc2CCC(=O)O)CC1, 13-membered ring, MeCN, 0.36 mM, 2.0 h): 19%
14 | CC(C)(C)OC(=O)N[C@H]1CCCN2C(=O)CCOc3ccccc3C3CCC(CC3)OC[C@@H]12 | – | – | – | – | – | ring closure, yield after HPLC ([3]; from CC(C)(C)OC(=O)N[C@H]1CCCN[C@H]1COC1CCC(c2ccccc2OCCC(=O)O)CC1, 14-membered ring, MeCN, 7.4 mM, 18.0 h): 80.3%

Source: patent US12054495B2, “Substituted macrocyclic compounds and related methods of treatment” (Alkermes, Inc., priority 2019, dated 2024)
